Measurements: patent publication US20080124287A1, “Cosmetic composition having whitening effect comprising extract of pulsatilla radix as main ingredient” (priority 2002, published 2008)
“Also recorded” adds a separate entry of the source.

Assays:
[1] = test system: Tyrosinase; assay: Measurement of inhibition action against tyrosinase; assay type: biochemical
Protocol: Tyrosinase was purchased from Sigma Company. The enzyme was dissolved in […]. Sodium phosphate buffer (0.1 M, pH 6.0), a substrate of enzyme and adjusted 1.6 mg/ml of concentration to obtain an enzyme solution. Sample was dissolved in sodium phosphate buffer and the undissolved residue was filtered out. 0.7 ml of the buffer, 0.2 ml of sample and 0.1 ml (15.7 unit/ml) of the enzyme solution were mixed and after 60 seconds, absorbance was measured at 475 nm by spectrophotometer.
By the following equation, inhibition ratio(%) of tyrosinase was calculated.
Inhibition ratio(%) of tyrosinase=[1−(S−B)/C]×100
wherein, • S: Test tube having enzyme and sample, • B: Test tube having sample, • C: Test tube having enzyme.

[2] = Water solubility; assay type: physicochemical
[3] = test system: liver spots of women; assay: Whitening effect of preparation composed of ranunculin, deoxypodophyllotoxin and SB365 on clinical trial; assay type: in vivo, human; details: concluded from compositions with and without SB365
Protocol: Pharmaceutical composition: 10 mg of ranunculin, 50 mg of deoxypodophyllotoxin, and 15 mg of SB365 were mixed well together with the base (19 g) to obtain pharmaceutical composition and the composition was rubbed on the area of liver spots three times a day till the time of curing.
A composition from which SB365 which was not effective on tyrosinase was deleted was used. The composition were administered to five women (F, G, H, I, K) having liver spots.

| Structure (SMILES) | inhibition against tyrosinase ([1]; at 0.03 μg/ml) | inhibition of activity of tyrosinase ([1]; at 0.03/g/ml) | water solubility [2] | effect against tyrosinase (in words) [1] | whitening effect in clinical trials [3] |
| --- | --- | --- | --- | --- | --- |
| COc1cc([C@@H]2c3cc4c(cc3C[C@H]3COC(=O)[C@@H]32)OCO4)cc(OC)c1OC [Deoxypodophyllotoxin] | 38% | 38% | very low and low |  |  |
| CC1OC(OC2C(O[C@H]3CC[C@@]4(C)C(CC[C@]5(C)C4CC=C4C6CC(C)(C)CC[C@]6(C(=O)O)CC[C@]45C)[C@]3(C)CO)OCC(OC3OC(CO)C(O)C(O)C3O)C2O)C(O)C(O)C1O (stereo partly drawn) [SB365, 3-O-α-L-ramnopyranosyl(1→2)-[β-D-glucopyranosyl(1→4)]-α-L-arabinopyranoside] |  |  |  | not effective; also recorded: did not inhibit; also recorded: no effect | have whitening effect; also recorded: excellent whitening effect |
